# Laboratory results published in patent US20250346593A1, “IMIDAZO(1,2-1)PYRIDINE DERIVATIVES AS RIPK2 INHIBITORS” (Interline Therapeutics, Inc., priority 2022, published 2025).
# Read-outs that look alike come from different tables or passages of the source.
# Columns and labels:
# [1] = biological target: GST-RIPK2 fusion protein (human RIPK2 amino acids 1-310) (Homo sapiens (Human), UniProt O43353); test: RIPK2 binding competition assay (TR-FRET, Tracer 199)
# [2] = system: NF-κB pathway (SEAP) in THP1-Dual cells; test: THP-1 Dual cell SEAP assay (L18-MDP stimulated); format: cell-based; settings: Homo sapiens, THP1-Dual, read-out: NFkB THP1 IC50
# [3] = read-out: RIPK2 IC50, RIPK2 binding competition assay
# Chain of GST-RIPK2 fusion protein (human RIPK2 amino acids 1-310) (O43353 1-310): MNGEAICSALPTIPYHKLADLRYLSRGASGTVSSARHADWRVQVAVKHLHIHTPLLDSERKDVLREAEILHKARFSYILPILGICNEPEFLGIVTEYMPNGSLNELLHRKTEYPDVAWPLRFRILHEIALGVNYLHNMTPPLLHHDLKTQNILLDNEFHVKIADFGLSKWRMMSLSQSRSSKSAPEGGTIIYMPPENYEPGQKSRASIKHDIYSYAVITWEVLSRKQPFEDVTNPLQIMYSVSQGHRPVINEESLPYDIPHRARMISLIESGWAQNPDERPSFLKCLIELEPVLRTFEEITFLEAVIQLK
SMILES,IC50 [1] [nM],IC50 [2] [nM],"IC50 [1, 3] [nM]"
"CC(C)(C)S(=O)(=O)c1ccn2ncc(-c3cc(N)nc(F)c3)c2c1 [Example 298, 4-(5-(tert-Butylsulfonyl)pyrazolo[1,5-a]pyridin-3-yl)-6-fluoropyridin-2-amine]",2.5 to 20,50 to 250,–
"CC(C)(C)S(=O)(=O)c1ccn2ncc(-c3ccc(F)nc3N)c2c1 [Example 299, 3-(5-(tert-butylsulfonyl)pyrazolo[1,5-a]pyridin-3-yl)-6-fluoropyridin-2-amine]",> 20,> 1000,–
"CC(C)(C)S(=O)(=O)c1ccn2ncc(-c3ccc(N)nc3F)c2c1 [Example 300, 5-(5-(tert-butylsulfonyl)pyrazolo[1,5-a]pyridin-3-yl)-6-fluoropyridin-2-amine]",> 20,> 1000,–
"COc1cc2ncc(-c3cc(F)nc(NCC4CCNCC4)c3)n2cc1S(=O)(=O)C(C)(C)C [Example 301, 4-(6-(tert-butylsulfonyl)-7-methoxyimidazo[1,2-a]pyridin-3-yl)-6-fluoro-N-(piperidin-4-ylmethyl)pyridin-2-amine]",1 to 2.5,50 to 250,–
"COc1cc(-c2cnc3cc(OC)c(S(=O)(=O)C(C)(C)C)cn23)cc(F)n1 [Example 302, 6-(tert-butylsulfonyl)-3-(2-fluoro-6-methoxypyridin-4-yl)-7-methoxyimidazo[1,2-a]pyridine]",2.5 to 20,250 to 1000,–
"CCCS(=O)(=O)Nc1cc(-c2cnc3cc(OC)c(S(=O)(=O)C(C)(C)C)cn23)cc(F)n1 [Example 304, N-(4-(6-(tert-butylsulfonyl)-7-methoxyimidazo[1,2-a]pyridin-3-yl)-6-fluoropyridin-2-yl)propane-1-sulfonamide]",–,> 1000,> 20
"COc1cc2ncc(-c3cc(F)c(OC)c(Br)c3)n2cc1S(=O)(=O)C(C)(C)C [Example 305, 3-(3-bromo-5-fluoro-4-methoxyphenyl)-6-(tert-butylsulfonyl)-7-methoxyimidazo[1,2-a]pyridine]",2.5 to 20,> 1000,–
"COc1cc2ncc(-c3cc(F)c(OCCO)c(Br)c3)n2cc1S(=O)(=O)C(C)(C)C [Example 306, 2-(2-bromo-4-(6-(tert-butylsulfonyl)-7-methoxyimidazo[1,2-a]pyridin-3-yl)-6-fluorophenoxy)ethan-1-ol]",2.5 to 20,50 to 250,–
"COc1cc2ncc(-c3cc(F)c(OC)c(N4CC[C@@H](O)C4=O)c3)n2cc1S(=O)(=O)C(C)(C)C [Example 307, (R)-1-(5-(6-(tert-butylsulfonyl)-7-methoxyimidazo[1,2-a]pyridin-3-yl)-3-fluoro-2-methoxyphenyl)-3-hydroxypyrrolidin-2-one]",–,> 1000,> 20
"COc1cc2ncc(-c3cc(F)c(OC)c(NCCNC(=O)OC(C)(C)C)c3)n2cc1S(=O)(=O)C(C)(C)C [Example 308, tert-butyl (2-((5-(6-(tert-butylsulfonyl)-7-methoxyimidazo[1,2-a]pyridin-3-yl)-3-fluoro-2-methoxyphenyl)amino)ethyl)carbamate]",1 to 2.5,50 to 250,–
"COc1cc2ncc(-c3cc(NCCCO)ncc3C)n2cc1S(=O)(=O)C(C)(C)C [Example 309, 3-({4-[7-Methoxy-6-(2-methylpropane-2-sulfonyl)imidazo[1,2-a]pyridin-3-yl]-5-methylpyridin-2-yl}amino)propan-1-ol]",–,> 1000,> 20
"COc1cc2ncc(-c3cc(NCCCO)ncc3F)n2cc1S(=O)(=O)C(C)(C)C [Example 310, 3-((4-(6-(tert-butylsulfonyl)-7-methoxyimidazo[1,2-a]pyridin-3-yl)-5-fluoropyridin-2-yl)amino)propan-1-ol]",–,> 1000,> 20
"COc1cc2ncc(-c3cc(C)c(OC)c(NCCCO)n3)n2cc1S(=O)(=O)C(C)(C)C [Example 311, 3-((6-(6-(tert-butylsulfonyl)-7-methoxyimidazo[1,2-a]pyridin-3-yl)-3-methoxy-4-methylpyridin-2-yl)amino)propan-1-ol]",2.5 to 20,250 to 1000,–
"COc1cc2ncc(-c3ccc(OC)c(NCCCO)n3)n2cc1S(=O)(=O)C(C)(C)C [Example 312, 3-((6-(6-(tert-butylsulfonyl)-7-methoxyimidazo[1,2-a]pyridin-3-yl)-3-methoxypyridin-2-yl)amino)propan-1-ol]",2.5 to 20,250 to 1000,–
"CCCS(=O)(=O)Nc1nc(-c2cnc3cc(OC)c(S(=O)(=O)C(C)(C)C)cn23)ccc1OC(F)(F)F [Example 313, N-(6-(6-(tert-butylsulfonyl)-7-methoxyimidazo[1,2-a]pyridin-3-yl)-3-(trifluoromethoxy)pyridin-2-yl)propane-1-sulfonamide]",–,> 1000,> 20
"COc1cc2ncc(-c3cc(F)nc(F)c3)n2cc1S(=N)(=O)C(C)(C)C (stereo not shown) [Example 315, tert-butyl(3-(2,6-difluoropyridin-4-yl)-7-methoxyimidazo[1,2-a]pyridin-6-yl)(imino)-λ^6-sulfanone]",–,> 1000,> 20

SMILES,IC50 [1] [nM],IC50 [2] [nM],"IC50 [1, 3] [nM]"
"COc1cc2ncc(-c3cc(F)nc(NCC4CCN(C(C)=O)CC4)c3)n2cc1S(=O)(=O)C(C)(C)C [Example 317, 1-(4-(((4-(6-(tert-butylsulfonyl)-7-methoxyimidazo[1,2-a]pyridin-3-yl)-6-fluoropyridin-2-yl)amino)methyl)piperidin-1-yl)ethan-1-one]",–,< 50,< 1
"COc1cc2ncc(-c3cc(F)c(OC)c(NCCCO)c3)n2cc1S(=O)(=O)C(C)(C)C [Example 319, 3-((5-(6-(tert-butylsulfonyl)-7-methoxyimidazo[1,2-a]pyridin-3-yl)-3-fluoro-2-methoxyphenyl)amino)propan-1-ol]",1 to 2.5,50 to 250,–
"COc1cc2ncc(-c3cccc(NCCCO)c3)n2cc1S(=O)(=O)C(C)(C)C [Example 320, 3-((3-(6-(tert-butylsulfonyl)-7-methoxyimidazo[1,2-a]pyridin-3-yl)phenyl)amino)propan-1-ol]",–,> 1000,> 20
"COc1cc2ncc(-c3cc(C)c(OC)c(NCCCO)c3)n2cc1S(=O)(=O)C(C)(C)C [Example 322, 3-((5-(6-(tert-butylsulfonyl)-7-methoxyimidazo[1,2-a]pyridin-3-yl)-2-methoxy-3-methylphenyl)amino)propan-1-ol]",2.5 to 20,> 1000,–
"COc1cc2ncc(-c3cnn(CCCO)c3)n2cc1S(=O)(=O)C(C)(C)C [Example 323, 3-(4-(6-(tert-butylsulfonyl)-7-methoxyimidazo[1,2-a]pyridin-3-yl)-1H-pyrazol-1-yl)propan-1-ol]",–,> 1000,> 20
"COc1cc2ncc(-c3cnn(CCO)c3)n2cc1S(=O)(=O)C(C)(C)C [Example 324, 2-(4-(6-(tert-butylsulfonyl)-7-methoxyimidazo[1,2-a]pyridin-3-yl)-1H-pyrazol-1-yl)ethan-1-ol]",–,> 1000,> 20
"CCCS(=O)(=O)N(C)c1cc(-c2cnc3cc(OC)c(S(=O)(=O)C(C)(C)C)cn23)cc(OC)c1C [Example 325, N-(5-(6-(tert-butylsulfonyl)-7-methoxyimidazo[1,2-a]pyridin-3-yl)-3-methoxy-2-methylphenyl)-N-methylpropane-1-sulfonamide]",–,> 1000,> 20
"CNc1cc(-c2cnc3cc(OC)c(S(=O)(=O)C(C)(C)C)cn23)cc(OC)c1OC [Example 326, 5-(6-(tert-butylsulfonyl)-7-methoxyimidazo[1,2-a]pyridin-3-yl)-2,3-dimethoxy-N-methylaniline]",1 to 2.5,50 to 250,–
"COc1cc2ncc(-c3cc(Cl)nc(NCCCO)c3)n2cc1S(=O)(=O)C(C)(C)C [Example 327, 3-((4-(6-(tert-butylsulfonyl)-7-methoxyimidazo[1,2-a]pyridin-3-yl)-6-chloropyridin-2-yl)amino)propan-1-ol]",1 to 2.5,< 50,–
"COc1cc2ncc(-c3cc(N)c(=O)n(C(F)F)c3)n2cc1S(=O)(=O)C(C)(C)C [Example 328, 3-amino-5-(6-(tert-butylsulfonyl)-7-methoxyimidazo[1,2-a]pyridin-3-yl)-1-(difluoromethyl) pyridin-2(1H)-one]",–,> 1000,> 20
"COc1cc2ncc(-c3cc(F)c(OC)c(NCCN)c3)n2cc1S(=O)(=O)C(C)(C)C [Example 329, N1-(5-(6-(tert-butylsulfonyl)-7-methoxyimidazo[1,2-a]pyridin-3-yl)-3-fluoro-2-methoxyphenyl) ethane-1,2-diamine]",2.5 to 20,250 to 1000,–
"CC(C)(C)S(=O)(=O)c1ccc2ncc(-c3cc(N)nc(F)c3)n2c1 [Example 330, 4-(6-(tert-butylsulfonyl)imidazo[1,2-a]pyridin-3-yl)-6-fluoropyridin-2-amine]",2.5 to 20,250 to 1000,–
"CCc1ccc(-c2cnc3cc(OC)c(S(=O)(=O)C(C)(C)C)cn23)nc1N [Example 331, 6-(6-(tert-butylsulfonyl)-7-methoxyimidazo[1,2-a]pyridin-3-yl)-3-ethylpyridin-2-amine]",–,> 1000,> 20
"COc1cc2ncc(-c3ccc(C)c(N)n3)n2cc1S(=O)(=O)C(C)(C)C [Example 332, 6-(6-(tert-butylsulfonyl)-7-methoxyimidazo[1,2-a]pyridin-3-yl)-3-methylpyridin-2-amine]",–,> 1000,> 20
"COc1cc2ncc(-c3cc(N)c(C#N)c(F)c3)n2cc1S(=O)(=O)C(C)(C)C [Example 333, 2-amino-4-(6-(tert-butylsulfonyl)-7-methoxyimidazo[1,2-a]pyridin-3-yl)-6-fluorobenzonitrile]",2.5 to 20,250 to 1000,–
"COc1cc2ncc(-c3ccc(OC(F)(F)F)c(N)n3)n2cc1S(=O)(=O)C(C)(C)C [Example 334, 6-(6-(tert-butylsulfonyl)-7-methoxyimidazo[1,2-a]pyridin-3-yl)-3-(trifluoromethoxy)pyridin-2-amine]",–,> 1000,> 20
